We go through 4 compounds from article PMC10993450, “New benzimidazole derivative compounds with in vitro fasciolicidal properties” (Parasites & Vectors, 2024).

Data set [1] can be described thus: Intestinal tolerability assay on murine intestinal organoids. In kind it is cell-based, mouse. Conditions: C57BL/6, mouse, murine small-intestinal organoids, 72 h. How it is done:
The murine intestinal organoid cultures were prepared following Stemcell Technologies™ protocols (https://www.stemcell.com/intestinal-epithelial-organoid-culture-with-intesticult-organoid-growth-medium-mouse-lp.html#protocols). Small intestine sections from C57BL/6 mice were excised, washed with ice-cold PBS, minced, and 2 mm segments were washed extensively. The segments were treated with Gentle Cell Dissociation Reagent (Stemcell Technologies™, Canada), resuspended in ice-cold PBS with 0.1% BSA and filtered. This process was repeated four times, resulting in four fractions. Cells from each fraction were centrifuged, washed, and resuspended in ice-cold DMEM/F12 supplemented with glutamine and HEPES 15 mM. Each fraction was mixed with Geltrex GFR LDEV-free (Gibco, Thermo Fisher Scientific, USA) and IntestiCult™ Organoid Grow Medium Mouse (Stemcell Technologies™, Canada), added to a 24-well plate and incubated at 37 °C for 10 min for matrix polymerization. The organoids were cultured in IntestiCult™ Organoid Grow Medium Mouse, with medium changes every 2 days and splitting after 7 days.
For intestinal tolerability assays, selected hit compounds were tested in mouse intestinal organoids at 25 and 50 µM final concentrations. The protocol, based on a previous work, involved the addition of Gentle Cell Dissociation Reagent (Stemcell Technologies™, Canada) on matrix domes, the disruption of the matrix, and the incubation the suspension. After centrifugation, cells were resuspended in DMEM/F12 supplemented with glutamine and HEPES 15 mM and centrifugated again. The pellet was resuspended in a mix of Geltrex GFR LDEV-free and IntestiCult™ Organoid Grow Medium Mouse. The mix was plated in 384-well plates, and after 4 days, mature organoids were exposed to the compounds. The positive control was hydrogen peroxide (0.15% v/v), and the negative control was DMSO (0.2%). Viability after 72 h was assessed using the alamarBlue assay.

Data set [2] concerns Fasciola hepatica eggs (ABZ-susceptible isolate). In words: Egg hatch test (EHT), ABZ-susceptible isolates. Conditions: mean ± SEM; for % Ovicidal activity: ABZ-susceptible isolate; for killing at 5 µM: Fasciola hepatica, read-out: % Ovicidal activity susceptible isolate. In kind it is cell-based. Put shortly: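 F. hepatica eggs from naturally infected cattle, ABZ-susceptible isolate, exposed 12 h at 25 °C in dark to compound (screen at 50 µM, actives retested at 10 µM; ≤1% DMSO). After washing and 14 days in dark at 25 °C, hatching triggered by 2 h light; ovicidal activity calculated relative to DMSO control.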

Data set [3] concerns Caco2 cells. Also on record: method as in doi:10.1016/j.molstruc.2022.133735. Conditions: cited from earlier work.

In turn, `Cc1ccc2[nH]c(NCc3cccs3)nc2c1` [BZD31] returned a viability at 72 h, 25 µM in data set [1] of 60.5%. Also, in data set [1], the viability at 72 h, 50 µM turned out to be 52.4%. Moreover, the “% Ovicidal activity” value was 99.58 ± 00.26% in data set [2] (10 µM); 99.5% in data set [2] (10 µM, listed as BDZ-31); at least 80% in data set [2] (10 µM, listed as BZD-31); 100.00 ± 0.00% in data set [2] (50 µM); “higher than 80%” in data set [2] (50 µM, listed as BZD-31). Besides, in data set [2], the killing at 5 µM was 74%.
For `Cc1ccc2[nH]c(NC(=O)c3ccccc3)nc2c1` [BZD46], the viability at 72 h, 25 µM in data set [1] stood at 99.7%. Besides, in data set [1], the viability at 72 h, 50 µM was above 87%. The “% Ovicidal activity” value in data set [2] (10 µM) is 83.90 ± 02.87%; in data set [2] (50 µM) it was 98.59 ± 0.94%; in data set [2] (50 µM, listed as BZD-46), “higher than 80%”. Moreover, in data set [2], the killing at 5 µM came out at 71.2 ± 9.91%.
`COc1ccc2[nH]c(NC(=O)c3ccccc3)nc2c1` [BZD56] had a viability at 72 h, 25 µM in data set [1] of 82.5%. Besides, the viability at 72 h, 50 µM in data set [1] was above 87%. Besides, the “% Ovicidal activity” value in data set [2] (10 µM) was 93.93 ± 01.90%; in data set [2] (10 µM, listed as BZD-56), at least 80%; in data set [2] (50 µM), 99.58 ± 0.22%; in data set [2] (50 µM, listed as BZD-56), “higher than 80%”. Moreover, in data set [2], the killing at 5 µM was below 90%.
In data set [1], `O=C(Nc1nc2cc(Cl)ccc2[nH]1)c1ccccc1` [BZD59] yielded a viability at 72 h, 25 µM of 82.7%. Further, the viability at 72 h, 50 µM in data set [1] amounted to 56.7%. In addition, the CC50 in data set [3] was around 62 µM. In addition, the “% Ovicidal activity” value in data set [2] (10 µM) was 91.16 ± 02.58%; in data set [2] (10 µM, listed as BZD-59), at least 80%; in data set [2] (50 µM), 100.00 ± 0.00%; in data set [2] (50 µM, listed as BZD-59) it was “higher than 80%”. The killing at 5 µM in data set [2] came out at 73.5 ± 8.88%.

What is called viability is a read-out of living cells in per cent, often relative to untreated cells. A high value points to better survival. As usually defined, the CC50 is the concentration at which the toxic effect on the cells reaches its halfway point.
